Assay results from patent US20250302974A1, “LECTIN-DRUG CONJUGATES” (UNICHEM LABORATORIES LIMITED, priority 2021, published 2025).
Square brackets hold non-standard residues; d marks the D form. Peptide text beside a SMILES is read from it. * marks the point of attachment. Dolaproine = CO[C@@H]([C@@H]1CCCN1)[C@@H](C)C(=O)O; Dil = CC[C@H](C)[C@H](NC)[C@@H](CC(=O)O)OC; X1 = C[C@@H](N*)[C@@H](O)c1ccccc1; NMeV = CN[C@H](C(=O)O)C(C)C

Key:
PBMC = test: MTT cytotoxicity assay, PBMC normal; assay type: cell-based; conditions: 48 h
Experimental: (§1) The Untreated cells were used as Control. […] Cells were incubated for 3 h at 37° C. The supernatant was aspirated.
(§2) The % Cytotoxicity was calculated using the formula: […]
(§3) Selectivity Index was calculated using the formula:
(§4) SI=IC50 in Normal cell/IC50 in cancer cell.

AGS cells = test: MTT cytotoxicity assay, AGS stomach; assay type: cell-based; conditions: Homo sapiens, 48 h
Experimental: as §1, §2, §3, §4

T24 cells = test: MTT cytotoxicity assay, T24 bladder; assay type: cell-based; conditions: Homo sapiens, T-24
Experimental: as §1, §2, §3, §4

MDA-MB-231 cells = test: MTT cytotoxicity assay, MDA-MB-231 breast; assay type: cell-based; conditions: Homo sapiens
Experimental: as §1, §2, §3, §4

A549 cells = test: MTT cytotoxicity assay, A549 lungs; assay type: cell-based; conditions: Homo sapiens
Experimental: as §1, §2, §3, §4

PBMC Normal = test: Cytotoxic effect by MTT assay, 48 h; conditions: for Percent cytotoxicity wrt control: PBMC, 48 h
Experimental: (§5) Cells were treated with Test Items at various concentrations (0.0001 μM-10 μM) for 48 h. The cells corresponding to Positive Control group were treated with Doxorubicin at a concentration ranging from 0.1 μM-100 μM. The Untreated cells were used as Control. After 48 h of incubation, the effect of Test Items on cytotoxicity of cells was determined by MTT assay, the plates were taken out and 20 μl of 5 mg/m1 of MTT 3-(4,5-dimethythiazol-2-yl)-2,5-diphenyl tetrazolium bromide solution was added to all the wells. Cells were incubated for 3 h at 37° C. The supernatant was aspirated. 150 μl of DMSO was added to each well to dissolve formazan crystals. The absorbance of each well was then read at 540 nm using Synergy HT micro plate reader.
(§6) The % Cytotoxicity was calculated using the formula:
(§7) Where, X=Absorbance of cells treated with Test Item; R=Absorbance of Control cells (Untreated cells maintained in growth medium only).

HT29 cells = test: MTT cytotoxicity assay, HT29 colon; assay type: cell-based; conditions: Homo sapiens, HT-29
Experimental: as §1, §2, §3, §4

PA-1 cells = test: MTT cytotoxicity assay, PA-1 ovary; assay type: cell-based; conditions: Homo sapiens
Experimental: as §1, §2, §3, §4

A549 Lungs = test: Cytotoxic effect by MTT assay, 48 h; conditions: for Percent cytotoxicity wrt control: 48 h
Experimental: as §5, §6, §7, §3, §4
Activity scores of the Selective Index values were categorized as: • Not selective (SI value ≤1) • Moderately selective (1<SI value <5) • Selective (SI value ≥5)

In the case of `CC[C@H](C)[C@@H]([C@@H](CC(=O)N1CCC[C@H]1[C@H](OC)[C@@H](C)C(=O)N[C@H](C)[C@@H](O)c1ccccc1)OC)N(C)C(=O)[C@@H](NC(=O)[C@@H](NC)C(C)C)C(C)C` [MMAE, monomethyl auristatin E] (H-[NMeV]V[Dil][Dolaproine]-X1), the IC50 (PBMC; PBMC (normal)) is reported as greater than 10000 nM, the cytotoxicity at 0.0001 µM (PBMC; PBMC, 0.0001 μm, read-out: Percent cytotoxicity wrt control) is reported as -2.7% and the cytotoxicity at 0.0001 µM (AGS cells; 0.0001 μm, read-out: Percent cytotoxicity wrt control) is reported as 30.9%. The cytotoxicity at 0.001 µM (AGS cells; 0.001 μm, read-out: Percent cytotoxicity wrt control) was 31.7%, the cytotoxicity at 0.01 µM (AGS cells; 0.01 μm, read-out: Percent cytotoxicity wrt control) was 32.6% and the cytotoxicity at 0.1 µM (AGS cells; 0.1 μm, read-out: Percent cytotoxicity wrt control) was 48.2%. It also gave a cytotoxicity at 1 µM (AGS cells; 1 μm, read-out: Percent cytotoxicity wrt control) of 48.4%, a cytotoxicity at 10 µM (AGS cells; 10 μm, read-out: Percent cytotoxicity wrt control) of 54.4% and an IC50 (AGS cells) of 1540 nM. For the same compound, the cytotoxicity at 0.0001 µM (T24 cells; T24, 0.0001 μm, 48 h, read-out: Percent cytotoxicity wrt control) was 51.8%, the cytotoxicity at 0.001 µM (T24 cells; T24, 0.001 μm, 48 h, read-out: Percent cytotoxicity wrt control) was 51.1% and the cytotoxicity at 0.01 µM (T24 cells; T24, 0.01 μm, 48 h, read-out: Percent cytotoxicity wrt control) was 46.1%. For the same compound, the cytotoxicity at 0.1 µM (T24 cells; T24, 0.1 μm, 48 h, read-out: Percent cytotoxicity wrt control) was 44.4%, the cytotoxicity at 1 µM (T24 cells; T24, 1 μm, 48 h, read-out: Percent cytotoxicity wrt control) was 44.4% and the cytotoxicity at 10 µM (T24 cells; T24, 10 μm, 48 h, read-out: Percent cytotoxicity wrt control) was 53.2%. The IC50 (T24 cells; T24, 48 h) was 0.01 nM, the IC50 (MDA-MB-231 cells; MDA-MB-231, 48 h) was greater than 10000 nM and the cytotoxicity at 0.0001 µM (MDA-MB-231 cells; MDA-MB-231, 0.0001 μm, 48 h, read-out: Percent cytotoxicity wrt control) was 11.3%. The cytotoxicity at 0.001 µM (MDA-MB-231 cells; MDA-MB-231, 0.001 μm, 48 h, read-out: Percent cytotoxicity wrt control) was 13.3%, the cytotoxicity at 0.01 µM (MDA-MB-231 cells; MDA-MB-231, 0.01 μm, 48 h, read-out: Percent cytotoxicity wrt control) was 28.9% and the cytotoxicity at 0.1 µM (MDA-MB-231 cells; MDA-MB-231, 0.1 μm, 48 h, read-out: Percent cytotoxicity wrt control) was 23.8%. It also gave a cytotoxicity at 1 µM (MDA-MB-231 cells; MDA-MB-231, 1 μm, 48 h, read-out: Percent cytotoxicity wrt control) of 16.8%, a cytotoxicity at 10 µM (MDA-MB-231 cells; MDA-MB-231, 10 μm, 48 h, read-out: Percent cytotoxicity wrt control) of 26.4% and an IC50 (A549 cells; A549, 48 h) of 10 nM. The cytotoxicity at 0.0001 µM (A549 cells; A549, 0.0001 μm, 48 h, read-out: Percent cytotoxicity wrt control) was 27.9%, the cytotoxicity at 0.001 µM (A549 cells; A549, 0.001 μm, 48 h, read-out: Percent cytotoxicity wrt control) was 39.3% and the cytotoxicity at 0.01 µM (A549 cells; A549, 0.01 μm, 48 h, read-out: Percent cytotoxicity wrt control) was 43.5%. The cytotoxicity at 0.1 µM (A549 cells; A549, 0.1 μm, 48 h, read-out: Percent cytotoxicity wrt control) was 58.8%, the cytotoxicity at 1 µM (A549 cells; A549, 1 μm, 48 h, read-out: Percent cytotoxicity wrt control) was 83.6% and the cytotoxicity at 10 µM (A549 cells; A549, 10 μm, 48 h, read-out: Percent cytotoxicity wrt control) was 75.8%. The “Percent cytotoxicity wrt control” value (PBMC Normal; 0.0001 μM) was −2.7%, the “Percent cytotoxicity wrt control” value (PBMC Normal; 0.001 μM) was 29.8% and the “Percent cytotoxicity wrt control” value (PBMC Normal; 0.01 μM) was 34.3%. For the same compound, the “Percent cytotoxicity wrt control” value (PBMC Normal; 0.1 μM) was 34.1%, the “Percent cytotoxicity wrt control” value (PBMC Normal; 1 μM) was 26.6% and the “Percent cytotoxicity wrt control” value (PBMC Normal; 10 μM) was 32.5%. It also gave an IC50 (PBMC Normal; read-out: IC50 Values, PBMC Normal, after 48 h of treatment) greater than 10000 nM, a cytotoxicity at 0.0001 µM (HT29 cells; HT29, 0.0001 μm, 48 h, read-out: Percent cytotoxicity wrt control) of 44.1% and a cytotoxicity at 0.001 µM (HT29 cells; HT29, 0.001 μm, 48 h, read-out: Percent cytotoxicity wrt control) of 44.6%. For the same compound, the cytotoxicity at 0.01 µM (HT29 cells; HT29, 0.01 μm, 48 h, read-out: Percent cytotoxicity wrt control) was 50.6%, the cytotoxicity at 0.1 µM (HT29 cells; HT29, 0.1 μm, 48 h, read-out: Percent cytotoxicity wrt control) was 50.4% and the cytotoxicity at 1 µM (HT29 cells; HT29, 1 μm, 48 h, read-out: Percent cytotoxicity wrt control) was 51.9%. For the same compound, the cytotoxicity at 10 µM (HT29 cells; HT29, 10 μm, 48 h, read-out: Percent cytotoxicity wrt control) was 55.9%, the IC50 (HT29 cells; HT29, 48 h) was 50 nM and the IC50 (PA-1 cells; PA-1, 48 h) was 30.1 nM. For the same compound, the cytotoxicity at 0.0001 µM (PA-1 cells; PA-1, 0.0001 μm, 48 h, read-out: Percent cytotoxicity wrt control) was 13.4%, the cytotoxicity at 0.001 µM (PA-1 cells; PA-1, 0.001 μm, 48 h, read-out: Percent cytotoxicity wrt control) was 57.5% and the cytotoxicity at 0.01 µM (PA-1 cells; PA-1, 0.01 μm, 48 h, read-out: Percent cytotoxicity wrt control) was 50%. The cytotoxicity at 0.1 µM (PA-1 cells; PA-1, 0.1 μm, 48 h, read-out: Percent cytotoxicity wrt control) was 57.5%, the cytotoxicity at 1 µM (PA-1 cells; PA-1, 1 μm, 48 h, read-out: Percent cytotoxicity wrt control) was 61.7% and the cytotoxicity at 10 µM (PA-1 cells; PA-1, 10 μm, 48 h, read-out: Percent cytotoxicity wrt control) was 58.3%. For the same compound, the “Percent cytotoxicity wrt control” value (A549 Lungs; A549, 0.0001 μM) was 27.9%, the “Percent cytotoxicity wrt control” value (A549 Lungs; A549, 0.001 μM) was 39.3% and the “Percent cytotoxicity wrt control” value (A549 Lungs; A549, 0.1 μM) was 58.8%. For the same compound, the “Percent cytotoxicity wrt control” value (A549 Lungs; A549, 1 μM) was 83.6%, the “Percent cytotoxicity wrt control” value (A549 Lungs; A549, 10 μM) was 75.8% and the IC50 (A549 Lungs; read-out: IC50 Values, A549 Lungs, after 48 h of treatment) was 10 nM.
